Measured values from patent US20130171098A1, “Cyclopropyl Fused Indolobenzazepine HCV NS5B Inhibitors” (priority 2006, published 2013).
Like-named read-outs stand apart in the source and are kept apart here.

Assays:
[1] = target: T1, HCV NS5B RdRp genotype 1b (Hepatitis C virus genotype 1b, UniProt Q9WMX2); experiment: HCV NS5B RdRp enzyme assay (standard / modified); assay type: biochemical
T1 construct: The protein was expressed with an 18 amino acid C-terminal truncation to enhance the solubility; made in house; host or cells: E. coli BL21(DE3), pET21a vector
T1 sequence (Q9WMX2 2420-2992): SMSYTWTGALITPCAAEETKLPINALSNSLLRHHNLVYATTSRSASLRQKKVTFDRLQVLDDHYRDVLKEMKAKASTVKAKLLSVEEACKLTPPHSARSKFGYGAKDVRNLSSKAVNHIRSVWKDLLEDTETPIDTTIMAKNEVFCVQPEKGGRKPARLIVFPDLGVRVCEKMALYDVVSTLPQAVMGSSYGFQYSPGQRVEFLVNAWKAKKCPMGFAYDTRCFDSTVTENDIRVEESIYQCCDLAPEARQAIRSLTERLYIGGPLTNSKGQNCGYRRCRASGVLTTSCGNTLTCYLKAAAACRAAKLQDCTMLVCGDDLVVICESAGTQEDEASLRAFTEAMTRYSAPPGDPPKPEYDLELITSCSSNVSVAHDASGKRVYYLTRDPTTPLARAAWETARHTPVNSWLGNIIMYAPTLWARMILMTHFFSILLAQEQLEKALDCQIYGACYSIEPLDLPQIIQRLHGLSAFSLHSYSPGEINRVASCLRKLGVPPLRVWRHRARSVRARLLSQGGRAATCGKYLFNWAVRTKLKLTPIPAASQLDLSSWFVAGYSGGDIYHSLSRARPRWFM

[2] = system: HCV replicon cells; experiment: HCV replicon FRET / luciferase assay; assay type: cell-based, Hepatitis C virus
[3] = HCV NS5B RdRp genotype 1b enzyme
[4] = HCV replicon cells, FRET or luciferase activity

| Compound | IC50 [1, 3] | EC50 [2, 4] | IC50 [1] | EC50 ([2]; Hepatitis C virus) |
| --- | --- | --- | --- | --- |
| COc1ccc2c(c1)C1CC1(C(=O)N1C3CCC1CN(C)C3)Cn1c-2c(C2CCCCC2)c2ccc(C(=O)NS(=O)(=O)N3CCN(C)CC3)cc21 (stereo not drawn) [drawing 54] | 1 to 500 nM | 1 to 500 nM | – | – |
| CNS(=O)(=O)NC(=O)c1ccc2c(C3CCCCC3)c3n(c2c1)CC1(C(=O)N2[C@@H]4CC[C@H]2CN(C)C4)CC1c1cc(OC)ccc1-3 (stereo partly drawn) [drawing 55] | – | – | 1 to 500 nM | 1 to 500 nM |
| CNS(=O)(=O)NC(=O)c1ccc2c(C3CCCCC3)c3n(c2c1)CC1(C(=O)N2[C@@H]4CC[C@H]2CN(C)C4)CC1c1cc(OC)ccc1-3 (stereo partly drawn) [drawing 56] | 1 to 500 nM | 1 to 500 nM | – | – |
| COc1ccc2c(c1)C1CC1(C(=O)N1C3CCC1CN(Cc1ccccc1)C3)Cn1c-2c(C2CCCCC2)c2ccc(C(=O)NS(=O)(=O)N(C)C)cc21 (stereo not drawn) [drawing 58] | 1 to 500 nM | 1 to 500 nM | – | – |
| COc1ccc2c(c1)C1CC1(C(=O)N1C3CCC1CNC3)Cn1c-2c(C2CCCCC2)c2ccc(C(=O)NS(=O)(=O)N(C)C)cc21 (stereo not drawn) [drawing 59] | 1 to 500 nM | 1 to 500 nM | – | – |
| COc1ccc2c(c1)C1CC1(C(=O)N1C3CCC1CN(C(C)=O)C3)Cn1c-2c(C2CCCCC2)c2ccc(C(=O)NS(=O)(=O)N(C)C)cc21 (stereo not drawn) [drawing 60] | 1 to 500 nM | 1 to 500 nM | – | – |
| CCN1CC2CCC(C1)N2C(=O)C12CC1c1cc(OC)ccc1-c1c(C3CCCCC3)c3ccc(C(=O)NS(=O)(=O)N(C)C)cc3n1C2 (stereo not drawn) [drawing 61] | 1 to 500 nM | 1 to 500 nM | – | – |
| COc1ccc2c(c1)C1CC1(C(=O)N1C3CCC1CN(C(C)C)C3)Cn1c-2c(C2CCCCC2)c2ccc(C(=O)NS(=O)(=O)N(C)C)cc21 (stereo not drawn) [drawing 62] | 1 to 500 nM | 1 to 500 nM | – | – |
| COc1ccc2c(c1)C1CC1(C(=O)N1C3CCC1CN(C)C3)Cn1c-2c(C2CCCCC2)c2ccc(C(=O)NS(N)(=O)=O)cc21 (stereo not drawn) [drawing 63] | 1 to 500 nM | 1 to 500 nM | – | – |
| COc1ccc2c(c1)C1CC1(C(=O)NC1CC3CCC(C1)N3C)Cn1c-2c(C2CCCCC2)c2ccc(C(=O)NS(=O)(=O)N(C)C)cc21 (stereo not drawn) [drawing 64] | 1 to 500 nM | 1 to 500 nM | – | – |
| COc1ccc2c(c1)C1CC1(C(=O)N1C3CCC1CN(CC1CC1)C3)Cn1c-2c(C2CCCCC2)c2ccc(C(=O)NS(=O)(=O)N(C)C)cc21 (stereo not drawn) [drawing 65] | 1 to 500 nM | 1 to 500 nM | – | – |
| COc1ccc2c(c1)C1CC1(C(=O)N1C3CCC1CN(c1ccccn1)C3)Cn1c-2c(C2CCCCC2)c2ccc(C(=O)NS(=O)(=O)N(C)C)cc21 (stereo not drawn) [drawing 67] | 1 to 500 nM | 1 to 500 nM | – | – |
| COc1ccc2c(c1)C1CC1(C(=O)N1C3CCC1CN(C)C3)Cn1c-2c(C2CCCCC2)c2ccc(C(=O)NS(=O)(=O)NC3CC3)cc21 (stereo not drawn) [drawing 68] | 1 to 500 nM | 1 to 500 nM | – | – |
| CN1CC2CCC(C1)N2C(=O)C12CC1c1cc(OCc3ccccc3)ccc1-c1c(C3CCCCC3)c3ccc(C(=O)NS(=O)(=O)N(C)C)cc3n1C2 (stereo not drawn) [drawing 69] | 1 to 500 nM | 1 to 500 nM | – | – |
| CN1CC2CCC(C1)N2C(=O)C12CC1c1cc(O)ccc1-c1c(C3CCCCC3)c3ccc(C(=O)NS(=O)(=O)N(C)C)cc3n1C2 (stereo not drawn) [drawing 70] | 1 to 500 nM | 1 to 500 nM | – | – |
| COc1ccc2c(c1)C1CC1(C(=O)N1C3CCC1CN(C)C3)Cn1c-2c(C2CCCCC2)c2ccc(C(=O)NS(C)(=O)=O)cc21 (stereo not drawn) [drawing 89] | – | – | 1 to 500 nM | 1 to 500 nM |
| CN1CC2CCC(C1)N2C(=O)C12CC1c1cc(OC(F)F)ccc1-c1c(C3CCCCC3)c3ccc(C(=O)NS(=O)(=O)N(C)C)cc3n1C2 (stereo not drawn) [drawing 90] | – | – | 1 to 500 nM | 1 to 500 nM |
| CCS(=O)(=O)NC(=O)c1ccc2c(C3CCCCC3)c3n(c2c1)CC1(C(=O)N2C4CCC2CN(C)C4)CC1c1cc(OC)ccc1-3 (stereo not drawn) [drawing 91] | – | – | 1 to 500 nM | 1 to 500 nM |
| CCN(CC)C(=O)N1CC2CCC(C1)N2C(=O)C12CC1c1cc(OC)ccc1-c1c(C3CCCCC3)c3ccc(C(=O)NS(=O)(=O)C4CC4)cc3n1C2 (stereo not drawn) [drawing 92] | – | – | 1 to 500 nM | 1 to 500 nM |
| CCN(CC)C(=O)N1CC2CCC(C1)N2C(=O)C12CC1c1cc(OC)ccc1-c1c(C3CCCCC3)c3ccc(C(=O)NS(=O)(=O)N4CCN(C)CC4)cc3n1C2 (stereo not drawn) [drawing 93] | – | – | 1 to 500 nM | 1 to 500 nM |
| COc1ccc2c(c1)C1CC1(C(=O)N1C3CCC1CN(C)C3)Cn1c-2c(C2CCCCC2)c2ccc(C(=O)NS(=O)(=O)N3C[C@@H](C)O[C@@H](C)C3)cc21 (stereo partly drawn) [drawing 94] | – | – | 1 to 500 nM | 1 to 500 nM |

| Compound | IC50 [1, 3] | EC50 [2, 4] | IC50 [1] | EC50 ([2]; Hepatitis C virus) |
| --- | --- | --- | --- | --- |
| COc1ccc2c(c1)C1CC1(C(=O)N1C3CCC1CN(C)C3)Cn1c-2c(C2CCCCC2)c2ccc(C(=O)NS(=O)(=O)N3CCCCC3)cc21 (stereo not drawn) [drawing 95] | – | – | 1 to 500 nM | 1 to 500 nM |
| CCN(C)S(=O)(=O)NC(=O)c1ccc2c(C3CCCCC3)c3n(c2c1)CC1(C(=O)N2C4CCC2CN(C)C4)CC1c1cc(OC)ccc1-3 (stereo not drawn) [drawing 96] | – | – | 1 to 500 nM | 1 to 500 nM |
| CCN(CC)S(=O)(=O)NC(=O)c1ccc2c(C3CCCCC3)c3n(c2c1)CC1(C(=O)N2C4CCC2CN(C)C4)CC1c1cc(OC)ccc1-3 (stereo not drawn) [drawing 97] | – | – | 1 to 500 nM | 1 to 500 nM |
| COc1ccc2c(c1)C1CC1(C(=O)N1C3CCC1CN(C)C3)Cn1c-2c(C2CCCCC2)c2ccc(C(=O)NS(=O)(=O)N(C)C(C)C)cc21 (stereo not drawn) [drawing 98] | – | – | 1 to 500 nM | 1 to 500 nM |
| COc1ccc2c(c1)C1CC1(C(=O)N1C3CCC1CN(C)C3)Cn1c-2c(C2CCCCC2)c2ccc(C(=O)NS(=O)(=O)N(C)C3CC3)cc21 (stereo not drawn) [drawing 99] | – | – | 1 to 500 nM | 1 to 500 nM |
| COc1ccc2c(c1)C1CC1C(C(=O)N1C3CCC1CN(C)C3)n1c-2c(C2CCCCC2)c2ccc(C(=O)NS(=O)(=O)C3CC3)cc21 (stereo not drawn) [drawing 100] | – | – | 1 to 500 nM | 1 to 500 nM |
| COc1ccc2c(c1)C1CC1(C(=O)N1C3CCC1CN(C)C3)Cn1c-2c(C2CCCCC2)c2ccc(C(=O)NS(=O)(=O)N3CCC3)cc21 (stereo not drawn) [drawing 101] | – | – | 1 to 500 nM | 1 to 500 nM |
| COc1ccc2c(c1)C1CC1(C(=O)N1C3CCC1CN(C)C3)Cn1c-2c(C2CCCCC2)c2ccc(C(=O)NS(C)(=O)=O)cc21 (stereo not drawn) [drawing 102] | 1 to 500 nM | 1 to 500 nM | – | – |
| CN1CC2CCC(C1)N2C(=O)C12CC1c1cc(OC(F)F)ccc1-c1c(C3CCCCC3)c3ccc(C(=O)NS(=O)(=O)N(C)C)cc3n1C2 (stereo not drawn) [drawing 103] | 1 to 500 nM | 1 to 500 nM | – | – |
| CCS(=O)(=O)NC(=O)c1ccc2c(C3CCCCC3)c3n(c2c1)CC1(C(=O)N2C4CCC2CN(C)C4)CC1c1cc(OC)ccc1-3 (stereo not drawn) [drawing 104] | 1 to 500 nM | 1 to 500 nM | – | – |
| CCN(CC)C(=O)N1CC2CCC(C1)N2C(=O)C12CC1c1cc(OC)ccc1-c1c(C3CCCCC3)c3ccc(C(=O)NS(=O)(=O)C4CC4)cc3n1C2 (stereo not drawn) [drawing 105] | 1 to 500 nM | 1 to 500 nM | – | – |
| CCN(CC)C(=O)N1CC2CCC(C1)N2C(=O)C12CC1c1cc(OC)ccc1-c1c(C3CCCCC3)c3ccc(C(=O)NS(=O)(=O)N4CCN(C)CC4)cc3n1C2 (stereo not drawn) [drawing 106] | 1 to 500 nM | 1 to 500 nM | – | – |
| COc1ccc2c(c1)C1CC1(C(=O)N1C3CCC1CN(C)C3)Cn1c-2c(C2CCCCC2)c2ccc(C(=O)NS(=O)(=O)N3C[C@@H](C)O[C@@H](C)C3)cc21 (stereo partly drawn) [drawing 107] | 1 to 500 nM | 1 to 500 nM | – | – |
| COc1ccc2c(c1)C1CC1(C(=O)N1C3CCC1CN(C)C3)Cn1c-2c(C2CCCCC2)c2ccc(C(=O)NS(=O)(=O)N3CCCCC3)cc21 (stereo not drawn) [drawing 108] | 1 to 500 nM | 1 to 500 nM | – | – |
| CCN(C)S(=O)(=O)NC(=O)c1ccc2c(C3CCCCC3)c3n(c2c1)CC1(C(=O)N2C4CCC2CN(C)C4)CC1c1cc(OC)ccc1-3 (stereo not drawn) [drawing 109] | 1 to 500 nM | 1 to 500 nM | – | – |
| CCN(CC)S(=O)(=O)NC(=O)c1ccc2c(C3CCCCC3)c3n(c2c1)CC1(C(=O)N2C4CCC2CN(C)C4)CC1c1cc(OC)ccc1-3 (stereo not drawn) [drawing 110] | 1 to 500 nM | 1 to 500 nM | – | – |
| COc1ccc2c(c1)C1CC1(C(=O)N1C3CCC1CN(C)C3)Cn1c-2c(C2CCCCC2)c2ccc(C(=O)NS(=O)(=O)N(C)C(C)C)cc21 (stereo not drawn) [drawing 111] | 1 to 500 nM | 1 to 500 nM | – | – |
| COc1ccc2c(c1)C1CC1(C(=O)N1C3CCC1CN(C)C3)Cn1c-2c(C2CCCCC2)c2ccc(C(=O)NS(=O)(=O)N(C)C3CC3)cc21 (stereo not drawn) [drawing 112] | 1 to 500 nM | 1 to 500 nM | – | – |
| COc1ccc2c(c1)C1CC1C(C(=O)N1C3CCC1CN(C)C3)n1c-2c(C2CCCCC2)c2ccc(C(=O)NS(=O)(=O)C3CC3)cc21 (stereo not drawn) [drawing 113] | 1 to 500 nM | 1 to 500 nM | – | – |
| COc1ccc2c(c1)C1CC1(C(=O)N1C3CCC1CN(C)C3)Cn1c-2c(C2CCCCC2)c2ccc(C(=O)NS(C)(=O)=O)cc21 (stereo not drawn) [drawing 114] | 1 to 500 nM | 1 to 500 nM | – | – |
| CCC(C)S(=O)(=O)NC(=O)c1ccc2c(C3CCCCC3)c3n(c2c1)C[C@@]1(C(=O)N2C4CCC2CN(C)C4)C[C@H]1c1cc(OC)ccc1-3 (stereo partly drawn) [drawing 132] | – | – | 1 to 500 nM | 1 to 500 nM |
